Test [1] addresses T1, 11-beta-hydroxysteroid dehydrogenase 1 (Homo sapiens, UniProt P28845). The test can be described thus: Inhibition of human 11beta-HSD1 expressed in HEK293 cell lysates using radiolabeled cortisone as substrate incubated for 10 mins by scintillation counting method.
Target sequence in this assay (P28845 whole entry): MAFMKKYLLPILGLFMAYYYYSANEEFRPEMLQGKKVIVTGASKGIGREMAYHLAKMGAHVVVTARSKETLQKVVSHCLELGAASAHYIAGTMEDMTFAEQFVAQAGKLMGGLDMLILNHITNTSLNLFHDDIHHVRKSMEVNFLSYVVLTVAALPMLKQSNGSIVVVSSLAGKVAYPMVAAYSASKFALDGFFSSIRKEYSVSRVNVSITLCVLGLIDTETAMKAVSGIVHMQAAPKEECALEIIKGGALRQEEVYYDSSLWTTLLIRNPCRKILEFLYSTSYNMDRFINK
Test [2] has as its target T1, 11-beta-hydroxysteroid dehydrogenase 1. The test can be described thus: Inhibition of 11beta-HSD1 in human primary keratinocytes assessed as reduction in conversion of […] incubated for 48 hrs by enzyme immunoassay. It counts as cell-based.
Target sequence in this assay (P28845 whole entry, looked up): as the sequence (P28845 whole entry) above
For test [3] the target is unchanged. As to the kind of experiment: Inhibition of 11beta-HSD1 in human skin assessed as reversal of cortisone-mediated decrease in dermal total collagen content at 200 uM by picrosirius red histochemical staining based assay.
Target sequence in this assay (P28845 whole entry, looked up): as the sequence (P28845 whole entry) above
Test [4] has the same target. The test can be described thus: Inhibition of 11beta-HSD1 in human skin assessed as reversal of cortisone-mediated decrease in dermal total collagen content at 10 to 100 uM by picrosirius red histochemical staining based assay.
Target sequence in this assay (P28845 whole entry, looked up): as the sequence (P28845 whole entry) above
Test [5] shares this target. As to the kind of experiment: Inhibition of 11beta-HSD1 in human skin assessed as reversal of cortisone-mediated decrease in dermal total collagen content by picrosirius red histochemical staining based assay.
Target sequence in this assay (P28845 whole entry, looked up): as the sequence (P28845 whole entry) above
Test [6] addresses T2, 17-beta-hydroxysteroid dehydrogenase type 1 (Homo sapiens) (UniProt P14061).
T2 sequence (whole entry): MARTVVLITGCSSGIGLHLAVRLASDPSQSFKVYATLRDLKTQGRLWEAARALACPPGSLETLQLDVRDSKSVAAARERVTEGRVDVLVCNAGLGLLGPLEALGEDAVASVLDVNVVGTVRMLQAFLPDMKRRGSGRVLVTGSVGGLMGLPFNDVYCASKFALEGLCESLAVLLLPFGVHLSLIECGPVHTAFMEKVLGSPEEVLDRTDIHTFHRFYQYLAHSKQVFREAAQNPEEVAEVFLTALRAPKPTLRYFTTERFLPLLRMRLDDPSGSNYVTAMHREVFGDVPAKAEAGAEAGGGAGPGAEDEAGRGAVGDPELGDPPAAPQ
The test can be described thus: Inhibition of human 17beta-HSD1 expressed in HEK293 cell lysates assessed as remaining enzyme activity at 1 uM using radiolabeled estrone as substrate incubated for 10 mins by scintillation counting method relative to control; values are per cent of control.

Test [7] has as its target T3, 17-beta-hydroxysteroid dehydrogenase type 2 (Homo sapiens) (UniProt P37059).
T3 sequence (whole entry): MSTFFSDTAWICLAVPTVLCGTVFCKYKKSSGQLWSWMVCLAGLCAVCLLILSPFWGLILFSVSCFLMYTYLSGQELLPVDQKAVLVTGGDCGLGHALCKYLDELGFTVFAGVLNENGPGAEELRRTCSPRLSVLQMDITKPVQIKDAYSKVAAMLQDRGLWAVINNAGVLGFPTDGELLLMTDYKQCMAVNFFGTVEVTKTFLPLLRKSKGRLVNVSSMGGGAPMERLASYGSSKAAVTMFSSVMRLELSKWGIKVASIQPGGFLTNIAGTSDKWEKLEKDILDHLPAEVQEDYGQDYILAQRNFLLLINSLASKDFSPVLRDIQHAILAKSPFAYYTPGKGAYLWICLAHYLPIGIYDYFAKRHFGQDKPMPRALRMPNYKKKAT
As to the kind of experiment: Inhibition of human 17beta-HSD2 expressed in HEK293 cell lysates assessed as remaining enzyme activity at 1 uM using radiolabeled estradiol as substrate incubated for 10 mins by scintillation counting method relative to control; values are per cent of control.

Test [8] has as its target T4, 11-beta-hydroxysteroid dehydrogenase type 2 (Homo sapiens) (UniProt P80365).
T4 sequence (whole entry): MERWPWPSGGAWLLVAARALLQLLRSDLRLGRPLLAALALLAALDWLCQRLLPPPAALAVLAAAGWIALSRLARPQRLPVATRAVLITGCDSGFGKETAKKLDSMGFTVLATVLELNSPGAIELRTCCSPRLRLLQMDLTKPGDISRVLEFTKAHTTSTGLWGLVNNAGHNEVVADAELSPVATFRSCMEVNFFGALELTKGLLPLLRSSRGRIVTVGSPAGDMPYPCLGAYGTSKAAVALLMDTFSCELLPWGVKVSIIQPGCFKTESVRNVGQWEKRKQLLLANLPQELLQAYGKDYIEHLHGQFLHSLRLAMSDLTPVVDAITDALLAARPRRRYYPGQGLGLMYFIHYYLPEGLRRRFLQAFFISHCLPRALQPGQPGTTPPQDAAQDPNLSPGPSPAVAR
The test can be described thus: Inhibition of human 11beta-HSD2 expressed in HEK293 cell lysates assessed as remaining enzyme activity at 1 uM using radiolabeled cortisol as substrate incubated for 10 mins in presence of NAD+ by scintillation counting method relative to control; values are per cent of control.

A value given as a limit tells only on which side of the number the result lay.

For orientation: IC50 means the concentration that gives 50% inhibition. A higher IC50 goes with lower potency. Broadly, the inhibition is the percentage by which the read-out fell short of the control. What is called residual activity is the activity still measured, relative to the control. In turn, `CC(=O)N[C@@H](Cc1ccc(C#N)cc1)C(=O)N1CCC[C@@H]1C(=O)NC1C2CC3CC(C2)CC1C3` (stereo partly drawn) came in with a half-maximal inhibitory concentration (IC50) in test [1] of 197 nM. Also, the inhibition result in test [2] is “Dose-dependent effect”; in test [3], 100%; in test [4], 18%; in test [5], “Dose-dependent effect”. Besides, the residual activity in test [6], in test [7] and in test [8] was > 90% throughout.

Consider `CCOc1ccc(C[C@H](N)C(=O)N2CCC[C@@H]2C(=O)NC2C3CC4CC(C3)CC2C4)cc1` (stereo partly drawn), for which the IC50 in test [1] came to 373 nM. The inhibition result in test [2] was “Dose-dependent effect”. Besides, the residual activity in test [6], in test [7] and in test [8] was > 90% each time.

In test [1], `CC(=O)N[C@@H](Cc1ccc(F)cc1)C(=O)N1CCC[C@@H]1C(=O)NC1C2CC3CC(C2)CC1C3` (stereo partly drawn) showed an IC50 of 266 nM. In addition, in test [2], the inhibition result was “Dose-dependent effect”. Besides, the residual activity in test [6], in test [7] and in test [8] was > 90% each time.

The record behind these values is ChEMBL document CHEMBL4152366, “Design, synthesis, and biological evaluation of novel selective peptide inhibitors of 11β-hydroxysteroid dehydrogenase 1” (Bioorg Med Chem, 2018).
